Measured values from ChEMBL document CHEMBL5463727, “Data for DCP probe SGK3-PROTAC1” (2023).

Tests used:
[1] = target: Tyrosine-protein kinase JAK2 (Homo sapiens) (UniProt O60674); experiment: % Activity remaining of JAK2 in the Dundee kinase panel at 1.0 µM; conditions: Compound concentration 1.0 uM
[2] = target: MAP kinase-interacting serine/threonine-protein kinase 2 (Homo sapiens) (UniProt Q9HBH9); experiment: % Activity remaining of MNK2 in the Dundee kinase panel at 1.0 µM; conditions: Compound concentration 1.0 uM
[3] = target: Protein kinase C alpha type (Homo sapiens) (UniProt P17252); experiment: % Activity remaining of PKC alpha in the Dundee kinase panel at 1.0 µM; conditions: Compound concentration 1.0 uM
[4] = target: Mitogen-activated protein kinase 10 (Homo sapiens) (UniProt P53779); experiment: % Activity remaining of JNK3 in the Dundee kinase panel at 1.0 µM; conditions: Compound concentration 1.0 uM
[5] = target: Mitogen-activated protein kinase 8 (Homo sapiens) (UniProt P45983); experiment: % Activity remaining of JNK1 in the Dundee kinase panel at 1.0 µM; conditions: Compound concentration 1.0 uM
[6] = target: Serine/threonine-protein kinase 16 (Homo sapiens) (UniProt O75716); experiment: % Activity remaining of MPSK1 in the Dundee kinase panel at 1.0 µM; conditions: Compound concentration 1.0 uM
[7] = target: Ephrin type-B receptor 2 (Homo sapiens) (UniProt P29323); experiment: % Activity remaining of EPH-B2 in the Dundee kinase panel at 1.0 µM; conditions: Compound concentration 1.0 uM
[8] = target: MAP kinase-activated protein kinase 2 (Homo sapiens) (UniProt P49137); experiment: % Activity remaining of MAPKAP-K2 in the Dundee kinase panel at 1.0 µM; conditions: Compound concentration 1.0 uM
[9] = target: MAP kinase-activated protein kinase 3 (Homo sapiens) (UniProt Q16644); experiment: % Activity remaining of MAPKAP-K3 in the Dundee kinase panel at 1.0 µM; conditions: Compound concentration 1.0 uM
[10] = target: Serine/threonine-protein kinase SIK3 (Homo sapiens) (UniProt Q9Y2K2); experiment: % Activity remaining of SIK3 in the Dundee kinase panel at 1.0 µM; conditions: Compound concentration 1.0 uM
[11] = target: Ribosomal protein S6 kinase beta-1 (Homo sapiens, UniProt P23443); experiment: % Activity remaining of S6K1 in the Dundee kinase panel at 1.0 µM; conditions: for % Activity remaining: Compound concentration 1.0 uM
[12] = target: Mitogen-activated protein kinase 7 (Homo sapiens) (UniProt Q13164); experiment: % Activity remaining of ERK5 in the Dundee kinase panel at 1.0 µM; conditions: Compound concentration 1.0 uM
[13] = target: Mitogen-activated protein kinase 14 (Homo sapiens) (UniProt Q16539); experiment: % Activity remaining of p38 alpha MAPK in the Dundee kinase panel at 1.0 µM; conditions: Compound concentration 1.0 uM
[14] = target: Serine/threonine-protein kinase BRSK1 (Homo sapiens) (UniProt Q8TDC3); experiment: % Activity remaining of BRSK1 in the Dundee kinase panel at 1.0 µM; conditions: Compound concentration 1.0 uM
[15] = target: MAP kinase-interacting serine/threonine-protein kinase 1 (Homo sapiens) (UniProt Q9BUB5); experiment: % Activity remaining of MNK1 in the Dundee kinase panel at 1.0 µM; conditions: Compound concentration 1.0 uM
[16] = target: Mitogen-activated protein kinase 12 (Homo sapiens) (UniProt P53778); experiment: % Activity remaining of p38 gamma MAPK in the Dundee kinase panel at 1.0 µM; conditions: Compound concentration 1.0 uM
[17] = target: Mitogen-activated protein kinase kinase kinase 5 (Homo sapiens) (UniProt Q99683); experiment: % Activity remaining of ASK1 in the Dundee kinase panel at 1.0 µM; conditions: Compound concentration 1.0 uM
[18] = target: Ephrin type-B receptor 3 (Homo sapiens) (UniProt P54753); experiment: % Activity remaining of EPH-B3 in the Dundee kinase panel at 1.0 µM; conditions: Compound concentration 1.0 uM
[19] = target: Vascular endothelial growth factor receptor 1 (Homo sapiens) (UniProt P17948); experiment: % Activity remaining of VEGFR1 in the Dundee kinase panel at 1.0 µM; conditions: Compound concentration 1.0 uM
[20] = target: RAC-alpha serine/threonine-protein kinase (Homo sapiens) (UniProt P31749); experiment: % Activity remaining of PKB alpha in the Dundee kinase panel at 1.0 µM; conditions: Compound concentration 1.0 uM
[21] = target: Mitogen-activated protein kinase kinase kinase kinase 5 (Homo sapiens) (UniProt Q9Y4K4); experiment: % Activity remaining of MAP4K5 in the Dundee kinase panel at 1.0 µM; conditions: Compound concentration 1.0 uM
[22] = target: Serine/threonine-protein kinase BRSK2 (Homo sapiens) (UniProt Q8IWQ3); experiment: % Activity remaining of BRSK2 in the Dundee kinase panel at 1.0 µM; conditions: Compound concentration 1.0 uM
[23] = target: Tyrosine-protein kinase ABL1 (Homo sapiens) (UniProt P00519); experiment: % Activity remaining of ABL in the Dundee kinase panel at 1.0 µM; conditions: Compound concentration 1.0 uM
[24] = target: Protein kinase C zeta type (Homo sapiens) (UniProt Q05513); experiment: % Activity remaining of PKC zeta in the Dundee kinase panel at 1.0 µM; conditions: Compound concentration 1.0 uM
[25] = target: Interleukin-1 receptor-associated kinase 1 (Homo sapiens) (UniProt P51617); experiment: % Activity remaining of IRAK1 in the Dundee kinase panel at 1.0 µM; conditions: Compound concentration 1.0 uM
[26] = target: Dual specificity tyrosine-phosphorylation-regulated kinase 3 (Homo sapiens) (UniProt O43781); experiment: % Activity remaining of DYRK3 in the Dundee kinase panel at 1.0 µM; conditions: Compound concentration 1.0 uM
[27] = target: Dual specificity mitogen-activated protein kinase kinase 2 (Homo sapiens) (UniProt P36507); experiment: % Activity remaining of MKK2 in the Dundee kinase panel at 1.0 µM; conditions: Compound concentration 1.0 uM
[28] = target: Tyrosine-protein kinase Yes (Homo sapiens) (UniProt P07947); experiment: % Activity remaining of YES1 in the Dundee kinase panel at 1.0 µM; conditions: Compound concentration 1.0 uM
[29] = target: Serine/threonine-protein kinase PLK1 (Homo sapiens) (UniProt P53350); experiment: % Activity remaining of PLK1 in the Dundee kinase panel at 1.0 µM; conditions: Compound concentration 1.0 uM
[30] = target: Aurora kinase B (Homo sapiens) (UniProt Q96GD4); experiment: % Activity remaining of Aurora B in the Dundee kinase panel at 1.0 µM; conditions: Compound concentration 1.0 uM
[31] = target: NUAK family SNF1-like kinase 1 (Homo sapiens) (UniProt O60285); experiment: % Activity remaining of NUAK1 in the Dundee kinase panel at 1.0 µM; conditions: Compound concentration 1.0 uM
[32] = target: Calcium/calmodulin-dependent protein kinase type 1 (Homo sapiens) (UniProt Q14012); experiment: % Activity remaining of CAMK1 in the Dundee kinase panel at 1.0 µM; conditions: Compound concentration 1.0 uM
[33] = target: Ribosomal protein S6 kinase alpha-5 (Homo sapiens) (UniProt O75582); experiment: % Activity remaining of MSK1 in the Dundee kinase panel at 1.0 µM; conditions: Compound concentration 1.0 uM
[34] = target: 3-phosphoinositide-dependent protein kinase 1 (Homo sapiens) (UniProt O15530); experiment: % Activity remaining of PDK1 in the Dundee kinase panel at 1.0 µM; conditions: Compound concentration 1.0 uM
[35] = target: Serine/threonine-protein kinase 24 (Homo sapiens) (UniProt Q9Y6E0); experiment: % Activity remaining of MST3 in the Dundee kinase panel at 1.0 µM; conditions: Compound concentration 1.0 uM
[36] = target: Misshapen-like kinase 1 (Homo sapiens) (UniProt Q8N4C8); experiment: % Activity remaining of MINK1 in the Dundee kinase panel at 1.0 µM; conditions: Compound concentration 1.0 uM
[37] = target: MAP/microtubule affinity-regulating kinase 4 (Homo sapiens) (UniProt Q96L34); experiment: % Activity remaining of MARK4 in the Dundee kinase panel at 1.0 µM; conditions: Compound concentration 1.0 uM
[38] = target: Serine/threonine-protein kinase D1 (Homo sapiens) (UniProt Q15139); experiment: % Activity remaining of PKD1 in the Dundee kinase panel at 1.0 µM; conditions: Compound concentration 1.0 uM

Chain of Ephrin type-B receptor 2 (Homo sapiens) (P29323 whole entry, looked up): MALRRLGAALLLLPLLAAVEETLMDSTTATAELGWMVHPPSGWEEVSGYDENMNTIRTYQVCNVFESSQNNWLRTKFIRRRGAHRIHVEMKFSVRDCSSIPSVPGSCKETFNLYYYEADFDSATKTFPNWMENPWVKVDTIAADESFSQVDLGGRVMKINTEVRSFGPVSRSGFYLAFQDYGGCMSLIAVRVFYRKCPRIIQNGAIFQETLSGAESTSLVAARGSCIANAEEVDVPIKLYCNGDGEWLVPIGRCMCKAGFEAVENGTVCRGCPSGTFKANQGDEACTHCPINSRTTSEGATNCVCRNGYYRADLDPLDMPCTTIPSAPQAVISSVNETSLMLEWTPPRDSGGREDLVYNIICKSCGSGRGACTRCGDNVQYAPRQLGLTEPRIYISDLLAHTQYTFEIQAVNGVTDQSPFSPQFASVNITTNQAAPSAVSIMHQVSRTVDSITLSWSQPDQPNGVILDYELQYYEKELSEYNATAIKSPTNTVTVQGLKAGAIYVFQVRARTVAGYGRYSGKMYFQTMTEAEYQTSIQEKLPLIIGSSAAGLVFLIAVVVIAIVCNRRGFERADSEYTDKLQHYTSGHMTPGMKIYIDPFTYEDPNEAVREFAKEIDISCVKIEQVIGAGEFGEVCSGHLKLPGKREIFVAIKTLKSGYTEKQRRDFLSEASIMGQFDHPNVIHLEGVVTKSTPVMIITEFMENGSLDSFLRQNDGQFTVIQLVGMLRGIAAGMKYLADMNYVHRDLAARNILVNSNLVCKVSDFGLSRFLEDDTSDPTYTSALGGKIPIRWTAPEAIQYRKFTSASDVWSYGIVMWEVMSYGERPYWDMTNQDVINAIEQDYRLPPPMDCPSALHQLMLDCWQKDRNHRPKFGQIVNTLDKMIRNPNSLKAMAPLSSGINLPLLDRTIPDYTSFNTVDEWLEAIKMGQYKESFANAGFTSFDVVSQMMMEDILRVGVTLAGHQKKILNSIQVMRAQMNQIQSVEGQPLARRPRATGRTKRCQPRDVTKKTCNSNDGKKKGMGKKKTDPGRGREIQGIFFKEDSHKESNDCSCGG
Chain of Mitogen-activated protein kinase kinase kinase kinase 5 (Homo sapiens) (Q9Y4K4 whole entry, looked up): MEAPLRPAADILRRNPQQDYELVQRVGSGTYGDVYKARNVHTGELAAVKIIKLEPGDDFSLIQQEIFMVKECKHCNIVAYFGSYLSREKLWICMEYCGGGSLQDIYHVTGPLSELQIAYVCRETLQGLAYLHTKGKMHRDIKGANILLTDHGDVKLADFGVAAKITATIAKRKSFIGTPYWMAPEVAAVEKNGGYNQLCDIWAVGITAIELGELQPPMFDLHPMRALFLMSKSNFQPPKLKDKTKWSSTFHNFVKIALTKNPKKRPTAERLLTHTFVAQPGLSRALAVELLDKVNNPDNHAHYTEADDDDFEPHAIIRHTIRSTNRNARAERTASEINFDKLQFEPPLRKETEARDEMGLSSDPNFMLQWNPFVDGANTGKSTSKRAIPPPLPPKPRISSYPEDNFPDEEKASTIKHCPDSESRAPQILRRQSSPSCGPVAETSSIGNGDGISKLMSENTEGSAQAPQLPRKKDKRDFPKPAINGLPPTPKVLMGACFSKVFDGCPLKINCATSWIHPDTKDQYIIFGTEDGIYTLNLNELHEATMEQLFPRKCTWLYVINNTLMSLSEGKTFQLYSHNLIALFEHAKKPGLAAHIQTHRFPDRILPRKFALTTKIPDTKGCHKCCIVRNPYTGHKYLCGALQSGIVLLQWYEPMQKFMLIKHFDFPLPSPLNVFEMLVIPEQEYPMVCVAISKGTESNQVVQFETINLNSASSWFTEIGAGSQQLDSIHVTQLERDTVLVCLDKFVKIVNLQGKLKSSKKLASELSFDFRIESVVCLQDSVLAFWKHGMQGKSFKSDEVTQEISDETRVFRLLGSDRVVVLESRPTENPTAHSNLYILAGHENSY
Chain of MAP kinase-activated protein kinase 3 (Homo sapiens) (Q16644 whole entry, looked up): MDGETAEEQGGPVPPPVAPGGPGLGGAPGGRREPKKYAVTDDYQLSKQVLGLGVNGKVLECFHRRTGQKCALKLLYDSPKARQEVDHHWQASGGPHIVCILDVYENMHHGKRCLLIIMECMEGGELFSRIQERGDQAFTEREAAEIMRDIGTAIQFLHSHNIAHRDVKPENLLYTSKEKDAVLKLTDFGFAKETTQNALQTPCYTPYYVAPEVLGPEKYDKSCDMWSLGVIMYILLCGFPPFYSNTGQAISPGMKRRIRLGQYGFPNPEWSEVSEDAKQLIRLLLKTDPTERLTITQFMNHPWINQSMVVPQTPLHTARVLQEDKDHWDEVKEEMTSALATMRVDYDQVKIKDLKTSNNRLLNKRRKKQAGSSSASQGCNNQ
Chain of Mitogen-activated protein kinase 7 (Homo sapiens) (Q13164 2-816 limits assumed): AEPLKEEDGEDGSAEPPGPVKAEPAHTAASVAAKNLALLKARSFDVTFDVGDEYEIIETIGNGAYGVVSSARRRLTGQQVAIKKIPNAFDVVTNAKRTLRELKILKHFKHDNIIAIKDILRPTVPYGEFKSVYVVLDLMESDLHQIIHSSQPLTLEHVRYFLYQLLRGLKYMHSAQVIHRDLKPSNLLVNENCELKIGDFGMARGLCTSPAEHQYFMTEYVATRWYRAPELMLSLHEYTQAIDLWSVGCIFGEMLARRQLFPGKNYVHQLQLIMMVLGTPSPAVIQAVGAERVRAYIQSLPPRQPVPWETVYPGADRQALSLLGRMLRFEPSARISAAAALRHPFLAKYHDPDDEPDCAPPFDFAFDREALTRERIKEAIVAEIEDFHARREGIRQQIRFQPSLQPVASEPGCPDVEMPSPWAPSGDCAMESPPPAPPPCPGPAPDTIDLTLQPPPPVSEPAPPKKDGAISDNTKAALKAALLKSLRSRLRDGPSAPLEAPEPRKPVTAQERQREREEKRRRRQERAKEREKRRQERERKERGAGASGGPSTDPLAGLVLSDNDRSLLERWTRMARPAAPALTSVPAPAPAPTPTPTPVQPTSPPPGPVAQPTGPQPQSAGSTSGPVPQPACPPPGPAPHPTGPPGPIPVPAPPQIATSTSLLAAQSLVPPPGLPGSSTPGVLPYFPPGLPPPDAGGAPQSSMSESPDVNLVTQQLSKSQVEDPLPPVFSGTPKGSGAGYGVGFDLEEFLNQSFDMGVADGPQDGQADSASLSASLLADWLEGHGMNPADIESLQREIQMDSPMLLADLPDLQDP
Chain of Mitogen-activated protein kinase 8 (Homo sapiens) (P45983 whole entry): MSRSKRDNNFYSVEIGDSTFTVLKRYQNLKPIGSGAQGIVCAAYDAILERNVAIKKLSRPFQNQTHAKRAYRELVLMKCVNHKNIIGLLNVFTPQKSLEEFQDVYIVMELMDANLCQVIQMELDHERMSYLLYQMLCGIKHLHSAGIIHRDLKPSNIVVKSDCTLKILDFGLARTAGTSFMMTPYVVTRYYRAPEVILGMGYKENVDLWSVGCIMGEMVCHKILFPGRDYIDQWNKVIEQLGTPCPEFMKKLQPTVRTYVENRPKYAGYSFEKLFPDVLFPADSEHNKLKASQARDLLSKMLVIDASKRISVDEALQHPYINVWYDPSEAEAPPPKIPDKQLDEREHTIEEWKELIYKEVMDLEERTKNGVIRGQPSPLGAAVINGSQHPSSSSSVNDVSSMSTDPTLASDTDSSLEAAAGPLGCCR
Chain of Serine/threonine-protein kinase 16 (Homo sapiens) (O75716 whole entry): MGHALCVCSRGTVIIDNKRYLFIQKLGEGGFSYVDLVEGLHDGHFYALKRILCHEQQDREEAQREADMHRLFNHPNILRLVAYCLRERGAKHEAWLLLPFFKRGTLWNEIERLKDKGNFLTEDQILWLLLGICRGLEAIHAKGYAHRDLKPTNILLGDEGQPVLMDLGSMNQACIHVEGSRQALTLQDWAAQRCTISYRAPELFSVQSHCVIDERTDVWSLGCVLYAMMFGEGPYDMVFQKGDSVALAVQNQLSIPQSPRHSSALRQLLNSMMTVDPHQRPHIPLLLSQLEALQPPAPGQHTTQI
Chain of Tyrosine-protein kinase JAK2 (Homo sapiens) (O60674 whole entry): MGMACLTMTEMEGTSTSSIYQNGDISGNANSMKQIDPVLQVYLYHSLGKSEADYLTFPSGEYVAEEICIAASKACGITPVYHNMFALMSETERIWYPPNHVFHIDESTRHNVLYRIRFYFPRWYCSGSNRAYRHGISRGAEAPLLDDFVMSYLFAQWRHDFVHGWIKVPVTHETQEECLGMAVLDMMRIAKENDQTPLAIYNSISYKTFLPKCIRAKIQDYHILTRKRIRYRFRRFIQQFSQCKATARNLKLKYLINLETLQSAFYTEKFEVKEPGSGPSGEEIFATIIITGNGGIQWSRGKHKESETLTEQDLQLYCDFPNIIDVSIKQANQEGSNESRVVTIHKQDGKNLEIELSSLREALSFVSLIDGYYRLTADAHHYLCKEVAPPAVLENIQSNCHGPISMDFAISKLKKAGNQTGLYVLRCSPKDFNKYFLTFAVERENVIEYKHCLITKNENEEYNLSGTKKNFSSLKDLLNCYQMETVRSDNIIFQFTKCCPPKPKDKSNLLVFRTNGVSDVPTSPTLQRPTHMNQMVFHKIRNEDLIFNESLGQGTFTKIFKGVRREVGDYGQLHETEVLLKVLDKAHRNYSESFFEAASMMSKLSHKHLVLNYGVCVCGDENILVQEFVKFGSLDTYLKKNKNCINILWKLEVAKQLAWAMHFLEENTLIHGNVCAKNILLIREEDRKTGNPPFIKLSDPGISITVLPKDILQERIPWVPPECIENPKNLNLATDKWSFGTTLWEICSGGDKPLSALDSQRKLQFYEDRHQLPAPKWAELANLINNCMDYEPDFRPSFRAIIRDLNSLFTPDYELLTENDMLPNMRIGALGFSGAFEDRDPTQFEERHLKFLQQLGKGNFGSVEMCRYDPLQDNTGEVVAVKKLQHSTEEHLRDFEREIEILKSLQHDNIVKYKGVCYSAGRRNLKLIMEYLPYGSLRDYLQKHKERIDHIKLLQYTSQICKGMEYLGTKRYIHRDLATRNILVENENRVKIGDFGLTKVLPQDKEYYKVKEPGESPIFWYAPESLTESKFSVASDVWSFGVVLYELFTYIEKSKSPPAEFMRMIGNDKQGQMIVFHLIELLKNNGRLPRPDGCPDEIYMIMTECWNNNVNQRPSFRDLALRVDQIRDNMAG

A % Activity remaining [1] of 95.4%, a % Activity remaining [2] of 122% and a % Activity remaining [3] of 121% were found for `Cc1ccc(F)c(S(=O)(=O)Nc2ccc(-c3nc(OC[C@H]4CN(CCCCCCOCCOCCOCC(=O)N[C@H](C(=O)N5C[C@H](O)C[C@H]5C(=O)NCc5ccc(-c6scnc6C)cc5)C(C)(C)C)CCO4)c4cn[nH]c4n3)cc2)c1` in this work. It also gave a % Activity remaining [4] of 92.1%, a % Activity remaining [5] of 117% and a % Activity remaining [6] of 127%. For the same compound, the % Activity remaining [7] was 93.9%, the % Activity remaining [8] was 85.8% and the % Activity remaining [9] was 79%. For the same compound, the % Activity remaining [10] was 78.7%, the IC50 [11] was 1800 nM and the % Activity remaining [11] was 19%. It also gave a % Activity remaining [12] of 102%, a % Activity remaining [13] of 125% and a % Activity remaining [14] of 108%. It also gave a % Activity remaining [15] of 108%, a % Activity remaining [16] of 107% and a % Activity remaining [17] of 113%. It also gave a % Activity remaining [18] of 91.6%, a % Activity remaining [19] of 120% and a % Activity remaining [20] of 105%. For the same compound, the % Activity remaining [21] was 98.6%, the % Activity remaining [22] was 97.2% and the % Activity remaining [23] was 111%. The % Activity remaining [24] was 96.5%, the % Activity remaining [25] was 98.3% and the % Activity remaining [26] was 102%. For the same compound, the % Activity remaining [27] was 114%, the % Activity remaining [28] was 108% and the % Activity remaining [29] was 97.9%. The % Activity remaining [30] was 92.5%, the % Activity remaining [31] was 98% and the % Activity remaining [32] was 86.3%. The % Activity remaining [33] was 49.6%, the % Activity remaining [34] was 99.3% and the % Activity remaining [35] was 102%. For the same compound, the % Activity remaining [36] was 115%, the % Activity remaining [37] was 105% and the % Activity remaining [38] was 94%.

A % Activity remaining [1] of 93.6%, a % Activity remaining [2] of 122% and a % Activity remaining [3] of 118% were found for `Cc1ccc(F)c(S(=O)(=O)Nc2ccc(-c3nc(OC[C@H]4CN(CCCCCCOCCOCCOCC(=O)N[C@H](C(=O)N5C[C@@H](O)C[C@H]5C(=O)NCc5ccc(-c6scnc6C)cc5)C(C)(C)C)CCO4)c4cn[nH]c4n3)cc2)c1` in this work. The % Activity remaining [4] was 82.5%, the % Activity remaining [5] was 119% and the % Activity remaining [6] was 139%. It also gave a % Activity remaining [7] of 97.4%, a % Activity remaining [8] of 91.7% and a % Activity remaining [9] of 77%. The % Activity remaining [10] was 117%, the IC50 [11] was 1700 nM and the % Activity remaining [11] was 20.2%. For the same compound, the % Activity remaining [12] was 108%, the % Activity remaining [13] was 109% and the % Activity remaining [14] was 106%. The % Activity remaining [15] was 103%, the % Activity remaining [16] was 127% and the % Activity remaining [17] was 102%. It also gave a % Activity remaining [18] of 104%, a % Activity remaining [19] of 103% and a % Activity remaining [20] of 117%. It also gave a % Activity remaining [21] of 101%, a % Activity remaining [22] of 101% and a % Activity remaining [23] of 112%. The % Activity remaining [24] was 110%, the % Activity remaining [25] was 105% and the % Activity remaining [26] was 104%. For the same compound, the % Activity remaining [27] was 124%, the % Activity remaining [28] was 105% and the % Activity remaining [29] was 98.4%. It also gave a % Activity remaining [30] of 94.7%, a % Activity remaining [31] of 90% and a % Activity remaining [32] of 105%. It also gave a % Activity remaining [33] of 56.5%, a % Activity remaining [34] of 86.5% and a % Activity remaining [35] of 113%. For the same compound, the % Activity remaining [36] was 116%, the % Activity remaining [37] was 100% and the % Activity remaining [38] was 91.7%.
